Several values for one entry are separate records, joined by “and”; a condition that tells them apart may be missing. Equal entries are not always repeated.
Legend:
Type in all cases: cell-based, rat
[1] = test system: TH positive dopaminergic neurons of primary mesencephalic culture; assay: Neuroprotective effect on TH positive dopaminergic neuron survival following exposure to 6-OHDA; details: 6-OHDA 20 μM, 24 h, toxin alone
Method: This study investigated the neuroprotective effect of the plant extract of the invention on rat primary mesencephalic cultures following exposure to 6OHDA. […]
The midbrains were dissociated by trypsinisation for 20 min at 37° C. (Trypsin 0.05%, EDTA 0.02% (Batch 7310713, PanBiotech). The reaction was stopped by the addition of Dulbecco's modified Eagle's medium (DMEM, Batch 9710913, PanBiotech) containing DNAase I grade II (0.1 mg/mL, Batch H131108, PanBiotech) and 10% of foetal calf serum (FCS, Batch 41Q7218K, Gibco). Cells were then mechanically dissociated by 3 passages through a 10 mL pipette. Cells were then centrifuged at 180×g for 10 min at +4° C. on a layer of BSA (3.5%) in L15 medium. The supernatant was discarded and the cell pellets were re-suspended in a defined culture medium consisting of Neurobasal (Batch 1576979, Invitrogen, France) supplemented with 2% of B27 (Batch 1589889, Invitrogen), 2 mM of L-glutamine (Batch 8150713, PanBiotech), 2% of PS solution, 10 ng/mL of Brain-derived neurotrophic factor (Batch H140108, PanBiotech) and 1 ng/mL of Glial-Derived Neurotrophic Factor (Batch H130917, Pan Biotech) Viable cells were counted in a Neubauer cytometer using the trypan blue exclusion test. […]

[2] = test system: TH positive dopaminergic neurons of primary mesencephalic culture; assay: Neuroprotective effect on TH positive dopaminergic neuron survival following exposure to MPP+; details: MPP+ 4 μM, 48 h
Method: This study investigated the neuroprotective effect of the plant extract of the invention on rat primary mesencephalic cultures following exposure to 1-methyl-4-phenyl pyridinium (MPP^+).
In such assay, […] (BDNF) was used as standard molecule.
(§1) The mesencephalic neurons were cultivated as in preceding example.
On day 6 of culture, the medium was removed and fresh medium was added, without or with MPP^+ (Batch 092M4729V, Sigma, France) at 4 μM diluted in control medium. 6 wells per condition were assessed.
(§2) The cells were fixed, washed, permeabilized and non-specific sites were blocked.
The immunolabeled cultures were automatically examined with ImageXpress (Molecular Devices, United Kingdom) equipped with a LED at ×10 magnification. For each condition (6 culture wells), 20 automatically fields per well (representing ˜80% of the total surface of the well) were analyzed. The total number of TH neurons was automatically analyzed using MetaXpress software (Molecular Devices).
Data were expressed in percentage of control conditions (no MPP^+=100%) in order to express the MPP^+ injury. All values were expressed as mean+/−SEM (s.e.mean) of the 6 wells with statistical analyses on the different conditions (ANOVA followed by Dunnett's test when allowed, using GraphPad Prism software). […]

[3] = test system: TH positive dopaminergic neurons of primary mesencephalic culture; assay: Neuroprotective effect on TH positive dopaminergic neuron survival following exposure to rotenone; details: rotenone 10 nM, 24 hours, toxin alone
Method: as §1, §2
For each condition (6 culture wells), 20 automatically fields per well (representing ˜80% of the total surface of the well) were analyzed. The total number of TH neurons was automatically analyzed using MetaXpress software (Molecular Devices).

Molecule: NCCc1cc(O)c(O)cc1O [Composition 6-OHDA, 6-hydroxydopamine]
- cell death of TH positive neurons induced by the toxin [1]: > 25%

Molecule: C[n+]1ccc(-c2ccccc2)cc1 [MPP^+, 1-methyl-4-phenyl pyridinium]
- cell death of TH positive neurons induced by the toxin ([2]; toxin alone): > 35% and > 30%

Molecule: C=C(C)[C@H]1Cc2c(ccc3c2O[C@@H]2COc4cc(OC)c(OC)cc4[C@@H]2C3=O)O1 [Rotenone, rotenone]
- cell death of TH positive neurons induced by the toxin [3]: ~40%

B1: BDNF: Brain Derived Growth Factor (BDNF) used as standard molecule (protein, UniProt P23560 19-247, looked up)
Neurotrophic factor BDNF …: APMKEANIRGQGGLAYPGVRTHGTLESVNGPKAGSRGLTSLADTFEHVIEELLDEDQKVRPNEENNKDADLYTSRVMLSSQVPLEPPLLFLLEEYKNYLDAANMSMRVRRHSDPARRGELSVCDSISEWVTAADKKTAVDMSGGTVTVLEKVPVSKGQLKQYFYETKCNPMGYTKEGCRGIDKRHWNSQCRTTQSYVRALTMDSKKRIGWRFIRIDTSCVCTLTIKRGR
- protection from MPP+ induced injuries ([2]; 50 ng/mL): able to significantly protect cells

Source: patent US10596217B2, “Compositions containing a Withania somnifera extract incubated with a filamentous fungus of the Beauvaria genus” (Ethnodyne, priority 2015, dated 2020)
